Reference: patent publication US20190053492A1, “SUBSTITUTED PYRIDINE COMPOUNDS AS PESTICIDES” (Bayer CropScience Aktiengesellschaft, priority 2016, published 2019)
Where two headings read alike, the source gives them in different places.

Experiments:
Spodoptera frugiperda = Spodoptera frugiperda spray test; format: in vivo; conditions: after 7 days, maize leaf discs
Procedure, shortened: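 Efficacy in % was scored at 7 days against armyworm caterpillars placed on dried, compound-sprayed Zea mays leaf discs. Compound was dissolved in acetone/dimethylformamide and diluted in water with 1000 ppm alkylaryl polyglycol ether. 100% means all caterpillars were killed.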

Phaedon cochleariae = Phaedon cochleariae spray test; format: in vivo; conditions: after 7 days, Chinese cabbage leaf discs
Procedure: Phaedon cochleariae—Spray Test
Solvent: 78.0 parts by weight of acetone • • 1.5 parts by weight of dimethylformamide
Emulsifier: alkylaryl polyglycol ether
To produce a suitable active ingredient formulation, 1 part by weight of active ingredient is dissolved with the specified parts by weight of solvent and made up with water containing an emulsifier concentration of 1000 ppm until the desired concentration is attained. To produce further test concentrations, the formulation is diluted with emulsifier-containing water.
Discs of Chinese cabbage leaves (Brassica pekinensis) are sprayed with an active ingredient formulation of the desired concentration and, after drying, populated with larvae of the mustard beetle (Phaedon cochleariae).
After 7 days, the efficacy in % is determined. 100% means that all the beetle larvae have been killed; 0% means that no beetle larvae have been killed.

[1] = log P by HPLC on reversed-phase column (C 18), EEC Directive 79/831 Annex V.A8; format: physicochemical; conditions: 55° C.; for LOGP_HCOOH: log P (HCOOH); for LOGP_NEUTRAL: log P, neutral range; for chromatographic logP: reversed-phase HPLC column (C 18)
Procedure: Temperature: 55° C. […] Called log P (HCOOH) in the table. […] Called log P (neutral) in the table.

[2] = acidic range pH 2.7, 0.1% aqueous formic acid and acetonitrile, reversed-phase column (C 18)
[3] = HPLC on reversed-phase column (C 18)
[4] = acidic range at pH 2.7, 0.1% aqueous formic acid and acetonitrile, HPLC on reversed-phase column (C 18)

Compound | efficacy (caterpillars killed) (Spodoptera frugiperda; application rate 100 g/ha) | efficacy (caterpillars killed) (Spodoptera frugiperda; application rate 500 g/ha) | efficacy (beetle larvae killed) (Phaedon cochleariae; application rate 500 g/ha) | LOGP_HCOOH [1, 2] | LOGP_NEUTRAL [1, 3] | efficacy (beetle larvae killed) (Phaedon cochleariae; application rate 100 g/ha) | LOGP_HCOOH [1, 4] | pest or weed control at 500 g/ha (Spodoptera frugiperda; Spodoptera frugiperda, foliar, 168 h, application rate 500 g/ha, read-out: efficacy (caterpillars killed)) | pest or weed control at 500 g/ha (Phaedon cochleariae; Phaedon cochleariae, foliar, 168 h, application rate 500 g/ha, read-out: efficacy (beetle larvae killed)) | chromatographic logP ([1]; pH 2.7, LC-MS acidic range, pH 2.7, 0.1% formic acid/acetonitrile, read-out: log P (acidic) / log P (HCOOH)) | chromatographic logP ([1]; pH 2.7, log P (HCOOH), acidic range at pH 2.7, 0.1% aqueous formic acid and acetonitrile, HPLC on reversed-phase column (C 18), read-out: LOGP_HCOOH)
CC(C)C(=O)Nc1cc(-c2ccc(C(F)(F)F)cc2)cc(C(=O)NCc2cc(F)c(C#N)cc2F)n1 [Example I-071] | 100% | 100% | 83% | 4.23 | 4.08 | – | – | – | – | – | –
N#Cc1cc(F)c(CNC(=O)c2cc(-c3ccc(OC(F)(F)F)cc3)cc(NC(=O)C3CC3)n2)cc1F [Example I-086] | 100% | 83% | 100% | 4.15 | 4.02 | – | – | – | – | – | –
CC(C)C(=O)Nc1cc(-c2ccc(C(F)(F)F)cc2)cc(C(=O)NC(C)c2ccc(C#N)cc2)n1 (stereo not drawn) [Example I-087] | 100% | 100% | 83% | 4.20 | 4.15 | – | – | – | – | – | –
N#Cc1ccc(CNC(=O)c2cc(-c3ccc(SC(F)(F)F)cc3)cc(NC(=O)C3CC3)n2)cn1 [Example I-090] | 83% | 100% | 100% | 3.79 | 3.72 | – | – | – | – | – | –
Cc1cc(OC(F)(F)F)ccc1-c1cc(NC(=O)C2CC2)nc(C(=O)NCc2ccc(C#N)cc2)c1 [Example I-099] | 100% | 100% | 100% | 4.03 | 3.95 | 100% | – | – | – | – | –
O=C(NC1CC1)c1cc(-c2ccc(S(=O)(=O)C(F)(F)F)cc2)cc(NC(=O)C2CC2)n1 [Example I-103] | – | 100% | 100% | 3.28 | 3.17 | – | – | – | – | – | –
N#Cc1ccc(CNC(=O)c2cc(-c3ccc(OC(F)(F)F)cc3)cc(NC(=O)C3CC3)n2)nc1 [Example I-106] | 80% | 100% | – | 3.42 | 3.33 | 100% | – | – | – | – | –
N#Cc1c(F)cc(CNC(=O)c2cc(-c3ccc(OC(F)(F)F)cc3)cc(NC(=O)C3CC3)n2)cc1F [Example I-111] | 100% | 100% | 100% | – | 4.02 | 100% | 4.18 | – | – | – | –
O=C(NCc1ccc(-c2nnco2)cc1)c1cc(-c2ccc(OC(F)(F)F)cc2)cc(NC(=O)C2CC2)n1 [Example I-112] | 83% | 100% | 100% | – | 3.37 | – | 3.41 | – | – | – | –
Cn1ncc2cc(CNC(=O)c3cc(-c4ccc(OC(F)(F)F)cc4)cc(NC(=O)C4CC4)n3)cnc21 [Example I-114] | 83% | 100% | 100% | – | 3.23 | – | 3.33 | – | – | – | –
N#Cc1ccc(CNC(=O)c2cc(-c3ncc(C(F)(F)F)cc3Cl)cc(NC(=O)C3CC3)n2)cc1 [Example I-119] | 100% | 100% | 100% | – | 3.35 | 100% | 3.53 | – | – | – | –
N#Cc1ccc(CNC(=O)c2cc(-c3ccc(C(F)(F)F)nc3)cc(NC(=O)C3CC3)n2)cc1 [Example I-123, N-(4-Cyanobenzyl)-6′-[(cyclopropylcarbonyl)amino]-6-(trifluoromethyl)-3,4′-bipyridine-2′-carboxamide] | – | – | – | – | 2.99 | – | – | 100% | 100% | 3.02 | 3.13
O=C(Cc1ccc(Br)cc1)Nc1cc(-c2ccc(OC(F)(F)F)cc2)cc(C(=O)NC2CC2)n1 [Example I-125] | 100% | 100% | 100% | – | 4.20 | – | 4.46 | – | – | – | –
C#CC1(NC(=O)c2cc(-c3ccc(OC(F)(F)F)cc3)cc(NC(=O)C3CC3)n2)CC1 [Example I-126] | 83% | 100% | 100% | – | – | – | 3.63 | – | – | – | –
CNC(=O)c1cc(-c2ccc(OC(F)(F)F)cc2)cc(NC(=O)C2CC2)n1 [Example I-127] | 83% | 100% | 100% | – | – | – | 3.02 | – | – | – | –
CC(C)NC(=O)c1cc(-c2ccc(OC(F)(F)F)cc2)cc(NC(=O)C2CC2)n1 [Example I-129] | 100% | 100% | 100% | – | – | 100% | 3.84 | – | – | – | –
CCCNC(=O)c1cc(-c2ccc(OC(F)(F)F)cc2)cc(NC(=O)C2CC2)n1 [Example I-132] | 100% | 100% | 100% | – | – | – | 3.78 | – | – | – | –
O=C(NC1CCOC1=O)c1cc(-c2ccc(OC(F)(F)F)cc2)cc(NC(=O)C2CC2)n1 (stereo not drawn) [Example I-135] | – | 100% | 83% | – | – | – | 3.11 | – | – | – | –
O=C(NC1(C(F)(F)F)CC1)c1cc(-c2ccc(OC(F)(F)F)cc2)cc(NC(=O)C2CC2)n1 [Example I-137] | 100% | 100% | 100% | – | – | 100% | 4.17 | – | – | – | –
COC1(NC(=O)c2cc(-c3ccc(OC(F)(F)F)cc3)cc(NC(=O)C3CC3)n2)CC1 [Example I-140] | 100% | 100% | 100% | – | – | 100% | 3.58 | – | – | – | –
N#Cc1ccc(CNC(=O)c2cc(-c3ccc(CC(F)(F)F)cc3)cc(NC(=O)C3CC3)n2)cc1 [Example I-144] | 100% | 100% | 100% | – | 3.00 | 100% | 3.55 | – | – | – | –
O=C(N[C@H]1CC[C@@H](C(F)(F)F)CC1)c1cc(-c2ccc(OC(F)(F)F)cc2)cc(NC(=O)C2CC2)n1 [Example I-145] | 100% | 100% | 100% | – | 4.72 | 100% | 4.90 | – | – | – | –
O=C(NC1CCC(C(F)(F)F)CC1)c1cc(-c2ccc(OC(F)(F)F)cc2)cc(NC(=O)C2CC2)n1 (stereo not drawn) [Example I-146] | – | 83% | 100% | – | 4.60 | – | 4.77 | – | – | – | –
CC1(C(=O)Nc2cc(-c3ccc(OC(F)(F)F)cc3)cc(C(=O)NCc3ccc(C#N)cc3)n2)CC1 [Example I-147] | 100% | 100% | 100% | – | – | 100% | 4.33 | – | – | – | –
N#Cc1ccc(CNC(=O)c2cc(-c3ccc(OC(F)(F)C(F)F)cc3)cc(NC(=O)C3CC3)n2)cc1 [Example I-153] | 100% | 100% | 100% | – | 3.48 | 100% | 3.60 | – | – | – | –
N#CCCCCNC(=O)c1cc(-c2ccc(OC(F)(F)F)cc2)cc(NC(=O)C2CC2)n1 [Example I-157] | 100% | 83% | 100% | – | 3.26 | – | 3.38 | – | – | – | –
N#CC1CCC(CNC(=O)c2cc(-c3ccc(OC(F)(F)F)cc3)cc(NC(=O)C3CC3)n2)CC1 (stereo not drawn) [Example I-161] | 100% | 100% | 100% | – | 3.74 | 83% | 3.87 | – | – | – | –
